Like-named read-outs stand apart in the source and are kept apart here.
Experiments:
[1] = tested on: CYP3A4; set-up: method as in PMID 28232125; details: read-out: Ki of QCT for CYP3A4 activity; cited from earlier work
[2] = tested on: microsomal metabolism of RPG in RLM; assay: In vitro inhibition of RPG metabolism by QCT in RLM; format: in vitro ADME, rat
Experimental: (§1) The intrinsic metabolic clearance (CLint) was calculated as Vmax/Km. […] The parameter α is indicative of the inhibition type. The mixed model is a general equation that includes competitive, uncompetitive, and noncompetitive inhibition as special cases. When α = 1, the mixed model is identical to a noncompetitive inhibition. When α is very large (α→∞) or very small (α→0), the mixed model becomes identical to competitive inhibition or uncompetitive inhibition, respectively.

[3] = tested on: microsomal metabolism of RPG (repaglinide); assay: as above; format: in vitro ADME, rat; details: rat, rat liver microsomes
Experimental: as §1

[4] = In vivo oral pharmacokinetic study of RPG without or with QCT in rats; set-up: species or system Sprague-Dawley rats; details: rats, oral QCT 100 mg/kg
Experimental: Rats were anesthetized via intramuscular injection of 10 mg/kg zoletil. The femoral vein and artery of the rats were cannulated using a polyethylene tube (BD Medical, Franklin Lakes, NJ, USA). […] The vehicle solutions for the intravenous and oral doses were composed of PEG 400 and aqueous 0.3% CMC solution (50:50 v/v).
For comparison, the extent of absolute oral bioavailability (F; expressed as percent of dose administered) was calculated by dividing the dose-normalized AUC after oral administration by the dose-normalized AUC after intravenous injection. The peak plasma concentration (Cmax) and time to reach Cmax (Tmax) were obtained directly from the measured experimental data.

[5] = Microsomal protein binding by rapid equilibrium dialysis (HLM); details: human, microsomes
Experimental: (§2) A 200 μL spiked samples and 400 μL PBS were placed into the “sample” and “buffer” chambers of the RED device, respectively. After 4-h incubation to equilibrate between the buffer and plasma compartments, the RED plate was sampled from both compartments. The samples were matrix-matched for analysis by addition of either diluted plasma or buffer; (a) blank diluted plasma added to the buffer samples and (b) blank buffer added to the diluted plasma sample, at a ratio of 50:50 v/v. The unbound fractions in microsomes and diluted plasma were determined by dividing the analyte/IS peak area ratios of the (a) sample by those of the (b) sample. The unbound fraction in diluted plasma (fu,d) was converted to the unbound fraction in undiluted plasma (fu) using a Kalvass equation as below (DF: dilution factor). (1) fu=1/DF/[(1/fu,d)−1]+1/DF

[6] = tested on: in vitro metabolism of RPG in HLM; details: cited from earlier work
[7] = tested on: microsomal metabolism of RPG (repaglinide); assay: In vitro inhibition of RPG metabolism by QCT in HLM; format: in vitro ADME, human; details: human, human liver microsomes
Experimental: as §1

[8] = tested on: microsomal metabolism of RPG in HLM; assay: as above; format: in vitro ADME, human
Experimental: as §1

[9] = Plasma protein binding by rapid equilibrium dialysis (human plasma); format: in vitro ADME; details: human, plasma (20-fold diluted); Table S3, in-house; species not printed (clinical prediction); read-out: fu,QCT
Experimental: as §2

[10] = set-up: method as in earlier work; details: Table S3, ref [1] of the supplement (Ganio et al., 2010); cited from earlier work
[11] = healthy subjects, cited from earlier work
[12] = cited from earlier work
[13] = probe RPG (repaglinide), 1, 3, 10, 30 and 100 μM

SMILES: O=c1c(O)c(-c2ccc(O)c(O)c2)oc2cc(O)cc(O)c12 [QCT, Quercetin]
- Type of inhibition of RPG metabolism by QCT ([2]; RLM, Dixon plot and model fit): mixed inhibition
- Inhibition potency of QCT on hepatic metabolism of RPG in vitro ([2]; rats (RLM)): weak
- Ki at 60 min [3, 13]: 72 µM
- Classification of QCT as inhibitor of in vivo metabolism and systemic exposure of RPG [4]: weak inhibitor
- fraction unbound at 4 h, 5 μM [5]: 0.381
- Inhibition of in vitro metabolism of RPG ([6]; QCT 25 μM, RPG 0.2 μM): 58%
- Effect of QCT on metabolism of RPG in HLM ([6]; RPG 0.2 and 2 μM, QCT 25 μM): significantly inhibited
- Ki ([6]; read-out: Ki for the inhibitory effect of QCT on in vitro metabolism of RPG): 0.61 µM
- IC50 ([7]; probe RPG (repaglinide), 3 μM, IC50 of QCT on the microsomal metabolism of RPG, HLM 0.5 mg/mL, 3 μM RPG): 3 µM
- Ki [7, 13]: 24.2 µM
- Ki ([7]; probe RPG (repaglinide), Table S3, S = 5 μM, read-out: Calculated Ki, (fu,mic,QCT × IC50) / (S / Km + 1)): 0.534 µM
- Type of inhibition of RPG metabolism by QCT ([8]; HLM, Dixon plot and model fit): mixed inhibition
- IC50 ([8]; Table S3, source Figure 4, read-out: IC50 used for estimation of R): 1.66 µM
- Inhibition potency of QCT on hepatic metabolism of RPG in vitro ([8]; humans (HLM)): moderate
- IC50 ([8]; read-out: IC50 of QCT on the microsomal metabolism of RPG, HLM 0.5 mg/mL, 3 μM RPG): 3.03 ± 1.84 µM
- fraction unbound at 4 h, 5 μM [9]: 0.0462

SMILES: Cn1c(=O)c2c(ncn2C)n(C)c1=O [caffeine]
- Effect of oral QCT on systemic exposure (AUC and/or Cmax) ([11]; QCT 500 mg/day for 14 days): significantly increased

SMILES: COC(=O)[C@H](c1ccccc1Cl)N1CCc2sccc2C1 [clopidogrel]
- Increase of systemic exposure to orally administered RPG by CYP2C8 inhibitors [12]: 3.1–5.1 fold

SMILES: CCC(C)n1ncn(-c2ccc(N3CCN(c4ccc(OCC5COC(Cn6cncn6)(c6ccc(Cl)cc6Cl)O5)cc4)CC3)cc2)c1=O (stereo not shown) [itraconazole]
- Increase of systemic exposure to orally administered RPG by CYP3A4 inhibitors [12]: 1.4 fold

SMILES: CN(CCOc1ccc(CC2SC(=O)NC2=O)cc1)c1ccccn1 (stereo not shown) [rosiglitazone]
- Effect of oral QCT on the pharmacokinetics of rosiglitazone ([11]; QCT 500 mg/day for 21 days): did not significantly change

SMILES: CC[C@H]1OC(=O)[C@H](C)C(=O)[C@H](C)[C@@H](O[C@@H]2O[C@H](C)C[C@H](N(C)C)[C@H]2O)[C@](C)(OC)C[C@@H](C)C(=O)[C@H](C)[C@H]2N(CCCCn3cnc(-c4cccnc4)c3)C(=O)O[C@]12C [telithromycin]
- Increase of systemic exposure to orally administered RPG by CYP3A4 inhibitors [12]: 1.8 fold

SMILES: COc1cc(Cc2cnc(N)nc2N)cc(OC)c1OC [trimethoprim]
- Increase of systemic exposure to orally administered RPG by CYP2C8 inhibitors [12]: 1.6–2 fold

From PMC8224802 (Pharmaceutics, 2021)
